From patent US7148353B2 (priority 2003, dated 2006) come the findings set out here.

The target in experiment [1] is peripheral benzodiazepine receptors (Rattus norvegicus, UniProt P16257). Description: biochemical. The experiment is classed as binding. How it is done: Compounds of the invention were assessed for their binding to the benzodiazepine receptor by the test of Speth et al. [Life Sci. 24, 351 (1979)] for central benzodiazepine receptors and LeFur et al. [Life Sci. 33, 449 (1983)] for peripheral receptors. The compounds were tested first at 1.0E-09, 1.0E-07 and 1.0E-05 M in single determination. […] The specific ligand binding to the receptor is defined as the difference between the total binding and the nonspecific binding determined in the presence of an excess of unlabelled ligand. In each experiment, the respective reference compound was tested concurrently with the test compounds in order to assess the assay suitability. It was tested at several concentrations (for IC50 value determination), and the data were compared with historical values. The assay was rendered valid if suitability criteria were met.
Sequence of peripheral benzodiazepine receptors (P16257 whole entry): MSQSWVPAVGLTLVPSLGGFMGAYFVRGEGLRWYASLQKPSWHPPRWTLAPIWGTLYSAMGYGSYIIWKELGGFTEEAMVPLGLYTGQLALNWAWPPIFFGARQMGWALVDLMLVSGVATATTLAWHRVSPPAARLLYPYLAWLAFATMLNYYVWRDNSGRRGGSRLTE

The nature of experiment [2]: maze test, which tests anxiety. The experiment is classed as in vivo. The conditions noted are these: at 10 mg/kg. The method, then: The compounds of Example 1d (also found in Example 6d), Example 22d, and Example 35d, were also tested in vivo using the maze test, which tests anxiety [Montgomery, J. Comparative and Physiological Psychology 48, 254–60 (1955); Handley et al., Naunyn-Schmiedeberg's Archives of Pharmacology 327, 1–5 (1984); Lister, Psychopharm. 92, 180–85 (1987); Pellow et al., J. Neuroscience Methods 14, 149–67 (1985); Rodgers et al., Ethology and Psychopharmacology, S. J. Cooper and C. A. Hendrie (eds), John Wiley & Sons, Ltd., 9–43 (1994); and Trullas et al., Psychopharm. 111, 323–31 (1993)]. The results of the maze test for these compounds are found in FIGS. 1a, 1b, 2a, 2b, 3a, and 3b. FIGS. 1a, 2a, and 3a are graphs of the Number of Entries in Open Arms vs. mg/kg (dose of administered compound). FIGS. 1b, 2b, and 3b plot the Percent of Time Spent in Open Arms vs. mg/kg (dose of administered compound). […] The results of the maze test are accepted by persons of skill in the art as predictive of therapeutic utility.

The target of experiment [3] is central benzodiazepine receptors. Description: binding to central benzodiazepine receptors, displacement of 3H-flunitrazepam (test of Speth et al.). The conditions noted are these: Table 1a. On the technique in general: In a radioligand displacement assay an active substance lowers the binding of a labelled ligand.
Setting [4] is: Table 1a, read-out: IC50 (nM) peripheral.
Where [5] appears, read: Table 1b, read-out: IC50 (nM) peripheral.
Where [6] appears, read: Table 2, read-out: IC50 (nM) peripheral.

SMILES strings stand for the structures. Like-named read-outs stand apart in the source and are kept apart here.

As a reminder, the IC50 is the point on the concentration scale where inhibition reaches its midpoint. With `Cc1ccc(-c2nc3ccc(C)cn3c2CC(=O)C2CCCC2)cc1`, in experiment [1] (setting [4]), the IC50 turned out to be 310 nM.
Still for that read-out and setting: as for `Cc1ccc(-c2nc3ccc(C)cn3c2CC(=O)C(C)C)cc1`, the figure is 820 nM.
Still for that read-out and setting: for `Cc1ccc(-c2nc3ccc(C)cn3c2CC(=O)C2CC2)cc1` the value was 560 nM; for `Cc1ccc(-c2nc3ccc(C)cn3c2CC(=O)c2ccsc2)cc1`, 240 nM; for `Cc1ccc(-c2nc3ccc(C)cn3c2CC(=O)c2nccs2)cc1`, 1600 nM.
Take `Cc1ccc(-c2nc3ccc(C)cn3c2CC(=O)c2ccco2)cc1`: the IC50 in experiment [1] (setting [4]) came out at 1600 nM.
Still for that read-out and setting: as for `Cc1ccc(-c2nc3ccc(C)cn3c2CC(=O)c2cncnc2)cc1`, the figure is 3400 nM; as for `Cc1ccc(-c2nc3ccc(C)cn3c2CC(=O)c2sc(C)nc2C)cc1`, 2000 nM.
The same measure, in the same setting: for `Cc1ccc(-c2nc3ccc(C)cn3c2CC(=O)c2ccoc2)cc1` the value was 400 nM.
The same measure, in the same setting: as for `Cc1ccc(-c2nc3ccc(C)cn3c2CC(=O)c2c(C)nn(C)c2C)cc1`, the figure is over 10000 nM; as for `Cc1ccc(-c2nc3ccc(C)cn3c2CC(=O)c2nn(-c3ccccc3)nc2C)cc1`, 7600 nM; as for `Cc1ccc(-c2nc3ccc(C)cn3c2CC(=O)c2c(C)nn(-c3ccccc3)c2C)cc1`, over 10000 nM.
For `Cc1ccc(-c2nc3ccc(C)cn3c2CC(=O)c2c(C)nc3cc(C)ccn23)cc1`, in experiment [1] (setting [4]), the IC50 amounted to 210 nM.
With `Cc1ccc(-c2nc3ccc(C)cn3c2CC(=O)c2cc3ccccc3s2)cc1`, the IC50 in experiment [1] (setting [4]) is 220 nM.
Consider `Cc1ccc(-c2nc3ccc(C)cn3c2CC(=O)c2cc3c(C)nn(C)c3s2)cc1`, for which the IC50 in experiment [1] (setting [4]) turned out to be 2100 nM.
With `Cc1ccc(-c2nc3ccc(C)cn3c2CC(=O)Cc2cccs2)cc1`, the IC50 in experiment [1] (setting [4]) came out at 59 nM.
In the case of `Cc1ccc(-c2nc3ccc(C)cn3c2CC(=O)C2COc3ccccc3O2)cc1` (stereo not shown), in experiment [1] (setting [4]), the IC50 is 32 nM.
As for `Cc1ccc(-c2nc3ccc(C)cn3c2CC(=O)c2snnc2C)cc1`, the IC50 in experiment [1] (setting [4]) turned out to be 320 nM.
On the same count and under the same terms, for `Cc1ccc(-c2nc3ccc(C)cn3c2CC(=O)c2sccc2Cl)cc1` the value was 840 nM; for `Cc1ccc(-c2nc3ccc(C)cn3c2CC(=O)c2cncn2C)cc1`, 3100 nM.
Take `Cc1ccc(-c2nc3ccc(C)cn3c2CC(=O)c2c(C)noc2C)cc1`: in experiment [1] (setting [4]), the half-inhibitory concentration (IC50) amounted to 1200 nM.
On the same count and under the same terms, for `Cc1ccc(-c2nc3ccc(C)cn3c2CC(=O)c2scc(S(C)(=O)=O)c2Cl)cc1` the value was 730 nM.
For the compound `Cc1ccc(-c2nc3ccc(C)cn3c2CC(=O)c2cc(C)nn2C)cc1`, in experiment [1] (setting [4]), the IC50 is 810 nM.
Same read-out and setting: as for `Cc1ccc(-c2nc3ccc(C)cn3c2CC(=O)c2cc(C)on2)cc1`, the figure is 560 nM.
For the compound `Cc1ccc(-c2nc3ccc(C)cn3c2CC(=O)c2cn(C)cn2)cc1`, the IC50 in experiment [1] (setting [4]) is over 10000 nM.
Regarding `Cc1ccc(-c2nc3ccc(C)cn3c2CC(=O)c2csc(-c3cccs3)n2)cc1`, the IC50 in experiment [1] (setting [4]) is over 10000 nM.
On the same count and under the same terms, for `Cc1ccc(-c2nc3ccc(C)cn3c2CC(=O)c2sccc2C)cc1` the value was 230 nM; for `Cc1ccc(-c2nc3ccc(C)cn3c2CC(=O)c2nsc(Cl)c2Cl)cc1`, 1700 nM.
Still for that read-out and setting: as for `Cc1ccc(-c2nc3ccc(C)cn3c2CC(=O)c2ccc(C)s2)cc1`, the figure is 1800 nM.
Same read-out and setting: as for `Cc1ccc(-c2nc3ccc(C)cn3c2CC(=O)c2cc(C)n(C)n2)cc1`, the figure is 1300 nM.
Take `Cc1ccc(-c2nc3ccc(C)cn3c2CC(=O)c2nccn2C)cc1`: the IC50 in experiment [1] (setting [4]) is over 10000 nM.
Still for that read-out and setting: as for `CCn1nc(C)c(Br)c1C(=O)Cc1c(-c2ccc(C)cc2)nc2ccc(C)cn12`, the figure is 2100 nM; as for `Cc1ccc(-c2nc3ccc(C)cn3c2CC(=O)c2nnn(C)c2C)cc1`, over 10000 nM.
Still for that read-out and setting: for `CSc1ccc(C(=O)Cc2c(-c3ccc(C)cc3)nc3ccc(C)cn23)s1` the value was 6000 nM.
As to `Cc1ccc(-c2nc3ccc(C)cn3c2CC(=O)c2cn(-c3cccc(C)n3)cn2)cc1`, the IC50 in experiment [1] (setting [4]) was determined as 6600 nM.
Turning to `Cc1ccc(-c2nc3ccc(C)cn3c2CC(=O)CCc2ccccc2)cc1`, in experiment [1] (setting [4]), the IC50 is 290 nM.
As for `Cc1cc(Cl)cn2c(CC(=O)c3ccoc3)c(-c3ccc(Cl)cc3)nc12`, the IC50 in experiment [1] (setting [5]) was determined as 350 nM.
Take `Cc1cc(Cl)cn2c(CC(=O)c3cccs3)c(-c3ccc(Cl)cc3)nc12`: the IC50 in experiment [1] (setting [5]) is 590 nM.
Consider `O=C(Cc1c(-c2ccc(Cl)cc2)nc2ccccn12)c1cccs1`, for which the IC50 in experiment [1] (setting [5]) was found to be 2600 nM.
Same read-out and setting: as for `O=C(Cc1c(-c2ccc(Cl)cc2)nc2ccc(Cl)cn12)c1cccs1`, the figure is 290 nM.
As for `COc1ccc(-c2nc3ccc(C)cn3c2CC(=O)c2cc(C)nn2C)cc1`, in experiment [1] (setting [5]), the IC50 worked out at 2300 nM.
With `COc1ccc(-c2nc3ccc(C)cn3c2CC(=O)c2cccs2)cc1`, in experiment [1] (setting [5]), the IC50 is 2400 nM.
With `Cc1ccc(-c2nc3ccc(C)cn3c2C2CCCNC2=O)cc1` (stereo not shown), the IC50 in experiment [1] (setting [6]) is over 10000 nM.
In the case of `Cc1ccc(-c2nc3ccc(C)cn3c2C2CC=CCN(C)C2=O)cc1` (stereo not shown), the IC50 in experiment [1] (setting [6]) was 210 nM.
In the case of `Cc1ccc(-c2nc3ccc(C)cn3c2CC(=O)c2cccs2)cc1` [Example 1d, 2-(6-Methyl-2-p-tolyl-imidazo[1,2-a]pyridin-3-yl)-1-thiophen-2-yl-ethanone], the “maze test activity (Number of Entries in Open Arms, Percent of Time Spent in Open Arms)” value in experiment [2] was “statistically significant activity”.
For the compound `CC(=O)Cc1c(-c2ccc(C)cc2)nc2ccc(C)cn12` [Example 2d, 1-(6-Methyl-2-p-tolyl-imidazo[1,2-a]pyridin-3-yl)-propan-2-one], the IC50 in experiment [3] is 439 nM; in experiment [1] (setting [4]), 231 nM.
Turning to `Cc1ccc(-c2nc3ccc(C)cn3c2CC(=O)c2ccc(Cl)cc2)cc1` [Example 3d, 1-(4-Chloro-phenyl)-2-(6-methyl-2-p-tolyl-imidazo[1,2-a]pyridin-3-yl)-ethanone], the IC50 was 4060 nM in experiment [3] and 594 nM in experiment [1] (IC50 (nM) peripheral, Table 1a).
On the same counts, the results for `Cc1ccc(-c2nc3ccc(C)cn3c2CC(=O)c2ccccc2)cc1` [Example 4d, 2-(6-Methyl-2-p-tolyl-imidazo[1,2-a]pyridin-3-yl)-1-phenyl-ethanone] are 1750 nM and 386 nM.
As to `CCCCCC(=O)Cc1c(-c2ccc(C)cc2)nc2ccc(C)cn12` [Example 5d, 1-(6-Methyl-2-p-tolyl-imidazo[1,2-a]pyridin-3-yl)-heptan-2-one], the IC50 was 420 nM in experiment [3] and 269 nM in experiment [1] (setting [4]).
As to `COc1ccsc1C(=O)Cc1c(-c2ccc(C)cc2)nc2ccc(C)cn12` [Example 22d, 1-(3-Methoxy-thiophen-2-yl)-2-(6-methyl-2-p-tolyl-imidazo[1,2-a]pyridin-3-yl)-ethanone], in experiment [2], the “maze test activity (Number of Entries in Open Arms, Percent of Time Spent in Open Arms)” value was “statistically significant activity”.
As to `Cc1ccc(-c2nc3ccc(C)cn3c2CC(=O)c2cccs2)cc1` [drawing 97], the IC50 in experiment [1] (setting [4]) amounted to 153 nM.
As for `COc1ccsc1C(=O)Cc1c(-c2ccc(C)cc2)nc2ccc(C)cn12` [drawing 131], the IC50 in experiment [1] (setting [4]) worked out at 180 nM.
Take `Cc1ccc(-c2nc3ccc(C)cn3c2C2CCCN(C)C2=O)cc1` (stereo not shown) [drawing 151]: the IC50 in experiment [1] (setting [6]) turned out to be 1240 nM.
The same measure, in the same setting: as for `Cc1ccc(-c2nc3ccc(C)cn3c2C2CCCN(C)C2=O)cc1` (stereo not shown) [drawing 155], the figure is 1500 nM; as for `Cc1ccc(-c2nc3ccc(C)cn3c2C2CCCN(C)C2=O)cc1` (stereo not shown) [drawing 156], over 10000 nM.
As for `Cc1ccc(-c2nc3ccc(C)cn3c2CC(=O)CC(C)C)cc1` [—CH2CH(CH3)2], the IC50 is over 10000 nM in experiment [3] and 820 nM in experiment [1] (setting [4]).
